In brackets after ≈: the same amount, converted by molar mass. Where a SMILES comes first, the peptide text is derived from it.
What was measured:
[1] = system: E. coil ATCC25922; assay type: cell-based, E. coli
Description: (§1) The broth microdilution procedure involves preparing CAMHB broth, a bacterial suspension adjusted to McFarland 0.5 (1.5 × 10^8 CFU/mL) and diluted 200×, and a drug solution at 2× the final target concentration. To achieve a 400× final bacterial dilution, add 100 μL of the drug at different doses to a 96-well plate, then 100 μL of the diluted bacterial culture. Measure the initial absorbance (0 h), incubate at 37 °C for 16–18 h, and measure the final absorbance. With no change in absorbance, the MIC signifies the absence of bacterial growth.

[2] = system: Gram-positive bacteria; experiment: MIC against Gram-positive bacteria; assay type: cell-based; settings: broth microdilution
Description: as §1

[3] = system: THP-1; assay type: cell-based; settings: 72 h
[4] = system: S. aureus ATCC25923; assay type: cell-based
Description: as §1

[5] = system: P. aeruginosa ATCC27853; assay type: cell-based
Description: as §1

[6] = system: S. aureus ATCC33592; assay type: cell-based
Description: as §1

[7] = system: S. aureus ATCC29213; assay type: cell-based
Description: as §1

[8] = system: K. pneumoniae ATCC BAA-1705; assay type: cell-based
Description: as §1

[9] = system: S. aureus ATCC700698; assay type: cell-based
Description: as §1

[10] = system: E. faecalis ATCC 29212; assay type: cell-based
Description: as §1

[11] = system: K. pneumoniae ATCCC700603; assay type: cell-based
Description: as §1

[12] = system: A. baumannii ATCC19606; assay type: cell-based
Description: as §1

[13] = system: A. baumannii ATCC BAA-747; assay type: cell-based
Description: as §1

[14] = system: HEK293; assay type: cell-based, human; settings: 72 h
Description: (§2) We tested the cytotoxicity of several antibiotic compounds, including peptides and nanoparticles, on the human embryonic kidney cell lines HEK-293, HK-2, and […]. The cells were stored in DMEM medium and incubated at 37 °C with 5% CO2 in a humidifying environment. Using the MTT (methylthiazolyldiphenyl-tetrazolium bromide) test, cell viability was evaluated. Following a 5 × 10^3 cell/mL seeding in 96-well plates, the cells were exposed to 100 μL of samples at varying concentrations (12.5–200 μM) during 72 h at 37 °C. Later, each well is loaded with MTT solution (5 mg/mL in PBS) at a volume of 10 μL. The plates were left in the dark for 4 h. After forming formazan crystals due to the action of mitochondrial reductases in living cells, the crystals were dissolved using a solubilizing solution (pH 4.7, 40% dimethylformamide, 2% glacial acetic acid, and 16% sodium dodecyl sulfate) were shaken at 150 rpm and incubated for an hour at 37 °C. Using graphical plot analysis, the IC50 value–the concentration that results in 50% cell death–was obtained by measuring the absorbance of the dissolved formazan at 570 nm. The average of three independent tests, each carried out in triplicate, was used to display the results.

[15] = system: CRAB isolate AB-10; assay type: cell-based, A. baumannii
From the text: (§3) The blood samples of patients from Kaohsiung Medical University were used to collect and cryopreserve all of the CRAB clinical isolates. Analytical graded chemicals and reagents were utilized throughout the investigation. The T2–02 peptide (MW 2646.27 Da) was custom-synthesized by Kelowna International Scientific Inc., 1,2-[…]-sn-glycero-3-phosphoethanolamine-N-[methoxy(polyethylene glycol)-2000] (ammonium salt) (DSPE-PEG2000, MW 2693.285 Da) was purchased from Laysan Bio Inc., 1,2-Dioleoyl-sn-glycero-3-phosphocholine (DOPC, MW 786.1 Da) was acquired from BroadPharm, and Poly-L-lysine hydrobromide (30–70 kDa) was sourced from Sigma-Aldrich.
as §1

[16] = system: CRAB isolate AB-16; assay type: cell-based, A. baumannii
From the text: as §3, §1

[17] = system: CRAB isolate AB-06; assay type: cell-based, A. baumannii
From the text: as §3, §1

[18] = system: CRAB isolate AB-17; assay type: cell-based, A. baumannii
From the text: as §3, §1

[19] = system: CRAB isolate AB-18; assay type: cell-based, A. baumannii
From the text: as §3, §1

[20] = system: CRAB isolate AB-09; assay type: cell-based, A. baumannii
From the text: as §3, §1

[21] = system: CRAB isolate AB-15; assay type: cell-based, A. baumannii
From the text: as §3, §1

[22] = system: CRAB isolate AB-07; assay type: cell-based, A. baumannii
From the text: as §3, §1

[23] = system: CRAB isolate AB-02; assay type: cell-based, A. baumannii
From the text: as §3, §1

[24] = system: CRAB isolate AB-14; assay type: cell-based, A. baumannii
From the text: as §3, §1

[25] = system: CRAB isolate AB-11; assay type: cell-based, A. baumannii
From the text: as §3, §1

[26] = system: CRAB isolate AB-08; assay type: cell-based, A. baumannii
From the text: as §3, §1

[27] = system: CRAB isolate AB-04; assay type: cell-based, A. baumannii
From the text: as §3, §1

[28] = system: CRAB isolate AB-21; assay type: cell-based, A. baumannii
From the text: as §3, §1

[29] = system: CRAB isolate AB-20; assay type: cell-based, A. baumannii
From the text: as §3, §1

[30] = system: CRAB isolate AB-05; assay type: cell-based, A. baumannii
From the text: as §3, §1

[31] = system: CRAB isolate AB-01; assay type: cell-based, A. baumannii
From the text: as §3, §1

[32] = system: CRAB isolate AB-23; assay type: cell-based, A. baumannii
From the text: as §3, §1

[33] = system: CRAB isolate AB-19; assay type: cell-based, A. baumannii
From the text: as §3, §1

[34] = system: CRAB isolate AB-12; assay type: cell-based, A. baumannii
From the text: as §3, §1

[35] = system: CRAB isolate AB-22; assay type: cell-based, A. baumannii
From the text: as §3, §1

[36] = system: CRAB isolate AB-03; assay type: cell-based, A. baumannii
From the text: as §3, §1

[37] = system: CRAB isolate AB-24; assay type: cell-based, A. baumannii
From the text: as §3, §1

[38] = system: CRAB isolate AB-13; assay type: cell-based, A. baumannii
From the text: as §3, §1

[39] = system: HK-2 cells; experiment: Cytotoxicity assay (MTT); assay type: cell-based
Description: as §2

SMILES: CC[C@H](C)[C@H](NC(=O)[C@H](CCCCN)NC(=O)CNC(=O)[C@H](CCCNC(=N)N)NC(=O)[C@H](CCCNC(=N)N)NC(=O)[C@H](CCCCN)NC(=O)[C@H](CC(C)C)NC(=O)[C@H](CC(C)C)NC(=O)[C@H](CCCNC(=N)N)NC(=O)[C@H](CCCCN)NC(=O)[C@H](Cc1c[nH]c2ccccc12)NC(=O)[C@H](CC(C)C)NC(=O)[C@H](C)N)C(=O)N[C@H](C(=O)N[C@@H](CC(C)C)C(=O)N[C@@H](CC(N)=O)C(=O)N[C@@H](CCC(=O)O)C(=O)N[C@@H](CCCNC(=N)N)C(=O)N[C@@H](CC(C)C)C(=O)N[C@@H](CCCNC(=N)N)C(=O)N[C@@H](CC(C)C)C(=O)O)[C@@H](C)CC [T2–02] (H-ALWKRLLKRRGKIILNERLRL-OH)
- MIC [1]: 64 µg/mL (≈ 24.2 µM)
- MIC against Gram-positive bacteria (range) [2]: 64 to 256 µg/mL
- IC50 THP-1 [3]: 866 µg/mL (≈ 327 µM)
- MIC [4]: 256 µg/mL (≈ 96.7 µM)
- MIC [5]: 8 µg/mL (≈ 3.02 µM)
- MIC [6]: 256 µg/mL (≈ 96.7 µM)
- MIC [7]: 64 µg/mL (≈ 24.2 µM)
- MIC [8]: 512 µg/mL (≈ 193 µM)
- MIC [9]: 256 µg/mL (≈ 96.7 µM)
- MIC [10]: 64 µg/mL (≈ 24.2 µM)
- MIC [11]: 128 µg/mL (≈ 48.4 µM)
- MIC [12]: 8 µg/mL (≈ 3.02 µM)
- MIC [13]: 8 µg/mL (≈ 3.02 µM)
- IC50 HEK293 [14]: 1101 µg/mL (≈ 416 µM)
- MIC [15]: 8 µg/mL (≈ 3.02 µM)
- MIC [16]: 16 µg/mL (≈ 6.05 µM)
- MIC [17]: 8 µg/mL (≈ 3.02 µM)
- MIC [18]: 8 µg/mL (≈ 3.02 µM)
- MIC [19]: 16 µg/mL (≈ 6.05 µM)
- MIC [20]: 8 µg/mL (≈ 3.02 µM)
- MIC [21]: 8 µg/mL (≈ 3.02 µM)
- MIC [22]: 8 µg/mL (≈ 3.02 µM)
- MIC [23]: 8 µg/mL (≈ 3.02 µM)
- MIC [24]: 8 µg/mL (≈ 3.02 µM)
- MIC [25]: 8 µg/mL (≈ 3.02 µM)
- MIC [26]: 8 µg/mL (≈ 3.02 µM)
- MIC [27]: 8 µg/mL (≈ 3.02 µM)
- MIC [28]: 8 µg/mL (≈ 3.02 µM)
- MIC [29]: 8 µg/mL (≈ 3.02 µM)
- MIC [30]: 8 µg/mL (≈ 3.02 µM)
- MIC [31]: 8 µg/mL (≈ 3.02 µM)
- MIC [32]: 8 µg/mL (≈ 3.02 µM)
- MIC [33]: 8 µg/mL (≈ 3.02 µM)
- MIC [34]: 16 µg/mL (≈ 6.05 µM)
- MIC [35]: 8 µg/mL (≈ 3.02 µM)
- MIC [36]: 4 µg/mL (≈ 1.51 µM)
- MIC [37]: 8 µg/mL (≈ 3.02 µM)
- MIC [38]: 4 µg/mL (≈ 1.51 µM)
- Cytotoxicity HK-2 related to PMB [39]: 30.9
- IC50 HK-2 ([39]; concentration causing 50% cell death, MTT, 72 h, 37 °C, average of three independent tests in triplicate): 557 µg/mL (≈ 210 µM)
